Laboratory results taken from ChEMBL document CHEMBL1153259, “Spiroepoxycyclohexadienone dimers: cytotoxic bisalkylating agents” (Bioorg Med Chem Lett, 1993).

How the values were obtained:
Format in all cases: functional, cell-based
A549 [1] = test: Compound was tested for cytotoxicity on A549 lung adenocarcinoma cell line using a proliferation assay (MTT reduction); settings: Homo sapiens
HT-29 = test: Compound was tested for cytotoxicity on HT-29 colon cancer cell line using a proliferation assay (MTT reduction); settings: Homo sapiens
L1210 = test: Compound was tested for cytotoxicity on L1210 leukemia cell line using a proliferation assay (MTT reduction); settings: Mus musculus
A549 [2] = test: Compound was tested for cytotoxicity on A549 lung adenocarcinoma cell line using a proliferation assay (MTT reduction).; settings: Homo sapiens

| Compound | IC50 (A549 [1]) [µM] | IC50 (HT-29) [µM] | IC50 (L1210) [µM] | IC50 (A549 [2]) [nM] |
| --- | --- | --- | --- | --- |
| COC1=CC2C3C=CC(C2[C@@]2(CO2)C1=O)[C@@]1(CO1)C3=O (stereo partly specified) | 17.5 | 5.8 | > 36 |  |
| O[C@@H]1CCC2C3C=CC(C2[C@@]12CO2)[C@@]1(CO1)[C@@H]3O (stereo partly specified) | 18 | 6 | 19.5 |  |
| O[C@@H]1C=CC2C3C=CC(C2[C@@]12CO2)[C@@]1(CO1)[C@@H]3O (stereo partly specified) | 31.5 | 17 | 22.5 |  |
| O=C1C2C=CC(C3C2C2C/C(=N\Cc4ccccc4)[C@]3(O)CN2Cc2ccccc2)[C@@]12CO2 (stereo partly specified) | > 28 | 27 | > 28 |  |
| O=C1C2C=CC(C3C2C=CC(=O)[C@]32CO2)[C@@]12CO2 (stereo partly specified) |  | 0.3 | 0.18 | 750 |
| COC1=CC2C(C3C=CC2(OC)C(=O)[C@]32CO2)[C@@]2(CO2)C1=O (stereo partly specified) | 1.2 | 3.6 | 1 |  |
| COc1cccc2c1C(=O)c1c(O)c3c(c(O)c1C2=O)C[C@@](O)(C(=O)CO)C[C@@H]3O[C@H]1C[C@H](N)[C@H](O)[C@H](C)O1 [DOXORUBICIN] | 0.1 | 0.12 | 0.04 |  |
